Laboratory results from the NIST ThermoML archive (doi:10.1021/acs.jced.7b01035).

Details: 500 kPa, Liquid, Concentric cylinders viscometry

NCCCO [3-amino-1-propanol]
Details | viscosity [mPa·s]
298.15 K | 30.43
303.15 K | 23.87
308.15 K | 19.07
313.15 K | 15.27
318.15 K | 12.36
323.15 K | 10.22
328.15 K | 8.54
333.15 K | 7.12
338.15 K | 6.05
343.15 K | 4.84
348.15 K | 4.17
353.15 K | 3.63
358.15 K | 3.19
363.15 K | 2.73
368.15 K | 2.52
373.15 K | 2.25
